Where two headings read alike, the source gives them in different places.
What was measured:
washed human platelets = experiment: Collagen-induced platelet aggregation, light transmission aggregometry (Born method); format: cell-based; details: for activity at 20 µM / IC50: Platelet; for activity at 20 µM: compound 20 µM, means ± SDs of three experiments, 100% = agonist alone; for IC50: Homo sapiens; for activity in collagen-induced platelet aggregation (SAR statement): relative to the quinoline analogs
Protocol: Light transmission aggregometry, i.e., the Born method, was used to determine in vitro antiplatelet aggregation activity using collagen as the agonist for platelet aggregation. Collagen was selected as the agonist, since it is the most thrombogenic component of the subendothelial layer. Collagen also serves as a substrate for platelet adhesion and as an inducer of platelet activation.
All experiments using human blood from healthy volunteers were performed according to the protocols approved by the Institutional Review Board at Cincinnati Children’s Hospital Medical Center, Cincinnati, Ohio. Each volunteer was required to sign an informed consent form approved by the IRB. Procedures for drawing human blood, isolating platelet-rich plasma (PRP), and preparing washed platelet suspensions were the same as those previously reported. […] PRP was obtained by means of the centrifugation of blood at 1400 rpm for 15 min at room temperature. PRP was centrifuged at 4000 rpm for 10 min at room temperature, and the platelet pellet was resuspended in HEPES Tyrode’s solution (pH 7.4) without calcium. Platelets were counted using Hemavet 950FS (Drew Scientific, Oxford, CT, USA), and the count was adjusted to 2.5 × 10^8/mL for aggregation studies.
The in vitro antiplatelet activity of the compounds was assayed on washed human platelets using light transmission aggregometry. Platelet aggregation was performed using a 4-channel Lumi-aggregometer (Chronolog, PA, USA) at 37 °C and stirring speed of 900 rpm. A volume of 250 µL of washed human platelets (2.5 × 10^8/mL) was pre-warmed to 37 °C along with the compounds or DMSO (0.1%) for 2 min before the addition of agonists such as collagen, AA, U46619 (a stable synthetic analog of thromboxane A2), ADP, and thrombin. For ATP secretion, platelets were pre-incubated with a luciferin/luciferase kit (Chrono-lume®) for 30 s at 37 °C before the addition of the agonist. The reactions were allowed to proceed for at least 4 min, and the results of platelet aggregation and ATP secretion were determined using Aggrolink software. Platelet aggregation was expressed as the maximum change in the light transmission, where the 100% value corresponded to treatment with the agonist alone. Compounds were evaluated in triplicate at nine compound concentrations ranging from 50 µM to 1 µM.

RhoA = experiment: RhoA-GTP formation, GST-Rhotekin effector pull-down assay in collagen-stimulated platelets; format: cell-based, human; details: 20 µM, 2 min pre-incubation; collagen 1 µg/mL for 4 min
Protocol: Next, the ability of the six compounds to suppress RhoA activity in platelets was assessed by subjecting them to a GST (Glutathione-S-transferase)-Rhotekin effector pull-down assay. The compounds were incubated with washed human platelets for 2 min before being stimulated with 1 µg/mL collagen. The analogs inhibited the activation of RhoA at the 20 µM concentration (Figure 2A,B). […] After confirming that these analogs could prevent RhoA activation and the phosphorylation of the MLC, their ability to disrupt complex-formation between RhoA and LARG was tested. […] These findings indicate that the active analogs inhibit RhoA activation by disrupting the binding between RhoA and its GEF.
(A,B) Washed human platelets were incubated with collagen (1 µg/mL) for 4 min, and the levels of RhoA-GTP formation were quantified with a GST-Rhotekin effector pull-down assay. The platelets were pre-incubated with 20 µM UC-177618, UC-177619, UC-177628, UC-177629, […], or […] for 2 min before being stimulated with collagen. The addition of ice-cold lysis buffer terminated the reaction. […] Relative amounts of the GTP-bound form of RhoA were quantified with densitometry measurements of total RhoA (T-RhoA) and normalized to untreated platelets. (C,D) The addition of 20 µM of active Rhosin-related compounds to washed human platelets 2 min before stimulation with collagen blocked the phosphorylation of the myosin light chain (p-MLC). The reactions were terminated after 4 min by adding 4x Laemmli sample buffer. The samples were processed for Western blotting and probed for MLC and p-MLC, and phosphorylation was quantified by measuring the densitometry of total MLC (T-MLC). The differences between DMSO- and Rhosin-related compounds were analyzed with t-test, and the results are shown as means ± SDs of three independent experiments. (* p < 0.05, ** p < 0.01, *** p < 0.001, and **** p < 0.0001).
The relative levels of RhoA-GTP in washed human platelets were quantified with effector domains GST-Rhotekin pull-down assays as previously reported. A volume of 250 µL of washed human platelets (2.5 × 10^8/mL) was pre-warmed to 37 °C along with the compounds or DMSO (0.1%) for 2 min before being stimulated with collagen (1 µg/mL). The reactions were terminated 4 min after collagen stimulation by adding ice-cold lysis buffer (20 mM Tris·HCl (pH 7.6), 100 mM NaCl, 1% Triton X-100, 0.2% Sodium Deoxycholate, 10 mM MgCl2, 1 mM dithiothreitol, 1x protease inhibitor cocktail, and 1x phosphatase inhibitor cocktail). The supernatants were collected and subjected to the GST-Rhotekin pull-down assay. The total cell lysates were also blotted in parallel. GTP-bound RhoA was quantitatively detected with Western blotting using an anti-RhoA antibody. The relative amounts of RhoA were quantified with densitometry measurements and normalized to the untreated platelets.

RhoA-LARG interaction = biological target: T1, RhoA-LARG interaction (Homo sapiens, UniProt P61586); experiment: In vitro complex-formation assay of RhoA with LARG DH-PH domain; format: binding; details: 20 µM; pull-down assay conditions, 4 °C, 1 h
T1 construct: 100 ng of purified full-length RhoA
T1 sequence (P61586 whole entry, the tested form may be a part): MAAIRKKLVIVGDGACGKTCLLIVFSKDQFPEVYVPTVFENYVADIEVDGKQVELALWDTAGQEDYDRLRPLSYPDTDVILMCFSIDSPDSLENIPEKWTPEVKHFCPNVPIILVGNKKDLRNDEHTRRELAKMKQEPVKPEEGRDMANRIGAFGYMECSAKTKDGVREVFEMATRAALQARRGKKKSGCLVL
Protocol: (A) A complex-formation assay tested the inhibitory effects of 20 µM UC-177618 and UC-177619 on RhoA interaction with the LARG DH-PH domain. […] After incubating the compound-RhoA-LARG mixture at 4 °C for 1 h, the beads associated with RhoA were detected with anti-RhoA Western blotting. (B,C) Top view of the predicted structural contacts of UC-177618 and UC-177619 in the binding pocket around the Trp58 residue of RhoA.
(A) A complex-formation assay tested the inhibitory effects of R-G04 and S-G04 on RhoA interaction with the LARG DH-PH domain. MBP-(His)6-tagged LARG (100 ng) was immobilized on Amylose beads. Binding buffer containing full-length RhoA (100 ng) was pre-incubated with different concentrations of R-G04 (25 µM or 50 µM), and S-G04 (5 µM or 10 µM) was added to the beads. After incubating the compound-RhoA-LARG mixture at 4 °C for 1 h, the beads associated with RhoA were detected with anti-RhoA Western blotting. (B) Top view of the predicted structural contacts of R-G04 and S-G04 in the binding pocket around the Trp58 residue of RhoA.
In total, 100 ng of purified MBP (Maltose-binding protein)-(His)6-tagged LARG DH-PH was immobilized on 20 µL of suspended amylose beads (No. E8021S; New England Biolabs Inc., Ipswich, MA, USA) by incubating them in an orbital shaker at 4 °C for 30 min in binding buffer (20 mM Tris·HCl (pH 7.6), 100 mM NaCl, 0.01% Triton X-100, 5mM EDTA, and 5 mM MgCl2). The compounds were added to the binding buffer containing 100 ng of purified full-length RhoA and pre-incubated at 4 °C for 30 min under constant agitation. The Amylose beads bound to LARG were washed thrice with binding buffer to get rid of unbound LARG, and the pre-incubated compound-RhoA mixture was added to the beads. This LARG-compound-RhoA mixture was incubated in the orbital shaker at 4 °C for 1 h. The beads were washed three times, and the amount of RhoA protein co-precipitated with the MBP-fusion-bound beads was detected with anti-RhoA Western blotting.

[1] = washed human platelets, read-out: % Platelet Aggregation, Collagen (1 µg/mL)
[2] = washed human platelets, read-out: % Platelet Aggregation, Collagen (5 µg/mL)
[3] = collagen-induced platelet aggregation, compounds without IC50 determination estimated from percent inhibition at 20 µM, read-out: IC50 (SAR table)
[4] = collagen 1 µg/mL, washed human platelets, dose-response curves, read-out: IC50 (95% CI) of platelet aggregation

IC50 (washed human platelets; [3])	IC50 (washed human platelets; [4])	LARG binding to RhoA (RhoA-LARG interaction)	SMILES	activity at 20 µM (washed human platelets; [1])	activity at 20 µM (washed human platelets; [2])	RhoA-GTP formation (RhoA)	activity in collagen-induced platelet aggregation (SAR statement) (washed human platelets)
2.39 µM			O=C(NNc1ccnc2cc(Cl)ccc12)c1cc2ccccc2[nH]1 [UC-177629]	7.3 ± 5.9%	10.8 ± 3%	inhibited RhoA-GTP formation	
2.34 µM	2.38 µM		Cc1ccc(C(=O)NNc2ccnc3c(C(F)(F)F)cccc23)cc1 [UC-177633]	3.3 ± 3.2%	10.1 ± 8.3%	inhibited RhoA-GTP formation	
> 20 µM			Cc1cc(NNC(=O)c2cc3ccccc3[nH]2)nc2ccccc12 [UC-177630]	73 ± 21.6%	85 ± 15.3%		lost all activity
> 20 µM			Cc1ccc(C(=O)NNc2cc(C)c3ccccc3n2)cc1 [UC-177635]	79.1 ± 7%	90.1 ± 8.3%		
5.64 µM			O=C(NNc1ccnc2ccccc12)c1ccc(Cl)c(Cl)c1 [UC-177617]	13 ± 10.4%	26.8 ± 9%		
4.59 µM			Cc1ccc(C(=O)NNc2ccnc3cc(Cl)ccc23)cc1 [UC-177634]	17 ± 2.6%	24.5 ± 3.9%		
	4.9 µM		O=C(NNc1ccnc2ccccc12)Nc1ccccc1 [UC-177616]	11.7 ± 2.3%	10.6 ± 3.6%		
2.23 µM	2.22 µM		O=C(NNc1ccnc2cc(C(F)(F)F)ccc12)c1cc2ccccc2[nH]1 [UC-177627]	17.7 ± 11.4%	19 ± 17.7%		
2.84 µM			O=C(NNc1ccnc2c(C(F)(F)F)cccc12)c1cc2ccccc2[nH]1 [UC-177628]	8.7 ± 4.7%	12.3 ± 9%	inhibited RhoA-GTP formation	
> 20 µM		showed no effects	O=C(NNc1ccnc2ccccc12)c1cc2ccccc2[nH]1 [UC-177626]	86 ± 14.4%	87.6 ± 19.4%		
> 20 µM			Cc1ccc(C(=O)NNc2ccnc3ccccc23)cc1 [UC-177631]	87.7 ± 13.1%	90.4 ± 3.7%		
	5.47 µM		S=C(NNc1ccnc2ccccc12)Nc1ccccc1 [UC-177615]	9.7 ± 6%	11.4 ± 9.9%		
3.55 µM			O=C(NNC1CCc2ccccc21)c1cc2ccccc2[nH]1 (stereo not drawn) [UC-178838]	7.3 ± 5.8%	13.7 ± 7.9%		nearly equipotent
> 20 µM			Cc1ccc(C(=O)NNc2ccnc3cc(C(F)(F)F)ccc23)cc1 [UC-177632]	86.7 ± 11%	93.1 ± 12.8%		

The remaining lines, values behind:

SMILES	IC50 (washed human platelets; [3])	IC50 (washed human platelets; [4])	LARG binding to RhoA (RhoA-LARG interaction)	activity at 20 µM (washed human platelets; [1])	activity at 20 µM (washed human platelets; [2])	RhoA-GTP formation (RhoA)	activity in collagen-induced platelet aggregation (SAR statement) (washed human platelets)
O=C1OCCN1NC1CCOc2ccc(-n3cc[nH]c3=S)cc21 (stereo not drawn) [UC-177639]				80 ± 17.3%	90.4 ± 9.1%		
Cc1ccc(C)c(OCC(=O)N/N=C/c2cn(Cc3ccccc3)c3ccccc23)c1C [UC-436352]				84.7 ± 15.5%	89 ± 2.5%		
CN(Cc1ccccc1)C(=O)C(N)Cc1c[nH]c2ccccc12 (stereo not drawn) [UC-651009]				86 ± 1.7%	89.2 ± 10.6%		
CSCCNc1nc(SCCC(F)(F)F)nc2c1ncn2[C@@H]1O[C@H](COP(=O)(O)OP(=O)(O)C(Cl)(Cl)P(=O)(O)O)[C@@H](O)[C@H]1O [Cangrelor, reference compound]				27.7 ± 2.52%	63.3 ± 4.16%		
COc1cc(/C=N/NC(=O)C2COc3ccccc3O2)ccc1O (stereo not drawn) [UC-392453]				90.7 ± 8.5%	94.7 ± 11.2%		
S=C(NNc1ccnc2cc(Cl)ccc12)Nc1ccccc1Cl [UC-936377]				61.3 ± 4.5%	71.7 ± 5.3%		
COc1ccc2cc(/C=N/NC(=O)Cc3c[nH]c4ccccc34)ccc2c1 [UC-391695]				79 ± 8%	84.8 ± 12.1%		
N[C@@H](Cc1c[nH]c2ccccc12)C(=O)Nc1ccc2oc(C(=O)O)cc2c1 [UC-830013]				93 ± 10.8%	91.3 ± 14.7%		
O=S(=O)(Nc1cc(C(F)(F)F)ccc1Cl)c1cccc2cccnc12 [UC-406794]		5.2 µM		12.7 ± 7.2%	25 ± 5.2%		
Cc1[nH]c2ccccc2c1CCNC(=O)c1ccc2nccnc2c1 [UC-984842]				91.3 ± 10.5%	95.9 ± 6.2%		
CN(Nc1ccnc2cc(C(F)(F)F)ccc12)C(N)=S [UC177623]				84.3 ± 9%	90.7 ± 6.2%		
O=C1OCCN1Nc1ccnc2ccccc12 [UC-177613]				84.3 ± 15.5%	95.2 ± 4.9%		
O=C1OCCN1Nc1ccnc2cc(C(F)(F)F)ccc12 [UC-177614]				87.3 ± 9.6%	90 ± 3.1%		
O=C(N/N=C/c1ccc(O)cc1)c1cc2ccccc2[nH]1 [UC-612333]				70 ± 5.6%	78.6 ± 14.9%		
Cc1[nH]c2ccccc2c1/C=N/NC(=O)c1cccnc1 [UC-390484]				81 ± 14%	88.1 ± 10%		
